In the NIST ThermoML archive (doi:10.1016/j.jct.2012.03.002):
± gives the expanded uncertainty stated by the source.

Legend:
[1] = 298.15 K, 101 kPa, Liquid; for viscosity: Capillary tube (Ostwald / Ubbelohde) method; for mass density: Vibrating tube method
[2] = refractive index (Na D-line) (dimensionless); settings: 298.15 K; 101 kPa; Liquid; Standard Abbe refractometry
[3] = wn = mass fraction of the nth substance listed; settings: 298.15 K, 101 kPa, Liquid; for viscosity: Capillary tube (Ostwald / Ubbelohde) method; for mass density: Vibrating tube method
[4] = refractive index (Na D-line) (dimensionless); wn = mass fraction of the nth substance listed; settings: 298.15 K, 101 kPa, Liquid, Standard Abbe refractometry
[5] = refractive index (Na D-line) (dimensionless); cn = amount concentration of the nth substance listed, in mol/dm3; settings: 298.15 K, 101 kPa, Liquid, Standard Abbe refractometry
[6] = cn = amount concentration of the nth substance listed, in mol/dm3; settings: 298.15 K, 101 kPa, Liquid, Alternating current cell with electrodes

## O=[N+]([O-])c1ccccc1 [nitrobenzene]
[1]
  viscosity: 1.809 ± 0.039 mPa·s
  mass density: 1197.7 ± 1.1 kg/m3
[2]
  refractive index: 1.5493 ± 0.0008

## O=[N+]([O-])c1ccccc1 [nitrobenzene] + C[N+](=O)[O-]
[3]; w2 = 0
  viscosity: 1.809 ± 0.039 mPa·s
  mass density: 1197.7 ± 1.1 kg/m3
[4]; w2 = 0
  refractive index: 1.5493 ± 0.0008

## O=[N+]([O-])c1ccccc1 [nitrobenzene] + [Na+].c1ccc([B-](c2ccccc2)(c2ccccc2)c2ccccc2)cc1
[5]; c2 = 0
  refractive index: 1.5493 ± 0.0008

## C[N+](=O)[O-] [nitromethane]
[1]
  viscosity: 0.614 ± 0.014 mPa·s
  mass density: 1128.8 ± 1.4 kg/m3
[2]
  refractive index: 1.3799 ± 0.0009

## C[N+](=O)[O-] [nitromethane] + O=[N+]([O-])c1ccccc1
[3]; w1 = 0.25
  viscosity: 0.918 ± 0.02 mPa·s
  mass density: 1178.4 ± 1.1 kg/m3
[3]; w1 = 0.5
  viscosity: 0.827 ± 0.018 mPa·s
  mass density: 1161.1 ± 1.2 kg/m3
[3]; w1 = 0.75
  viscosity: 0.745 ± 0.017 mPa·s
  mass density: 1144.7 ± 1.3 kg/m3
[3]; w1 = 1
  viscosity: 0.614 ± 0.014 mPa·s
  mass density: 1128.8 ± 1.4 kg/m3
[4]; w1 = 0.25
  refractive index: 1.5051 ± 0.0008
[4]; w1 = 0.5
  refractive index: 1.4623 ± 0.0008
[4]; w1 = 0.75
  refractive index: 1.4201 ± 0.0009
[4]; w1 = 1
  refractive index: 1.3799 ± 0.0009

## C[N+](=O)[O-] [nitromethane] + [Na+].c1ccc([B-](c2ccccc2)(c2ccccc2)c2ccccc2)cc1
[5]; c2 = 0
  refractive index: 1.3799 ± 0.0009

## [Na+].c1ccc([B-](c2ccccc2)(c2ccccc2)c2ccccc2)cc1 [sodium tetraphenylboron] + C[N+](=O)[O-]
[6]; c1 = 0.001163
  molar conductivity: 0.008583 ± 6e-06 S·m2/mol
[6]; c1 = 0.002132
  molar conductivity: 0.008413 ± 6e-06 S·m2/mol
[6]; c1 = 0.002952
  molar conductivity: 0.008296 ± 6e-06 S·m2/mol
[6]; c1 = 0.003655
  molar conductivity: 0.008195 ± 6e-06 S·m2/mol
[6]; c1 = 0.004797
  molar conductivity: 0.008057 ± 6e-06 S·m2/mol
[6]; c1 = 0.005686
  molar conductivity: 0.007972 ± 6e-06 S·m2/mol
[6]; c1 = 0.006397
  molar conductivity: 0.007909 ± 6e-06 S·m2/mol
[6]; c1 = 0.006701
  molar conductivity: 0.007878 ± 6e-06 S·m2/mol
[6]; c1 = 0.007231
  molar conductivity: 0.007825 ± 6e-06 S·m2/mol
[6]; c1 = 0.007676
  molar conductivity: 0.007789 ± 6e-06 S·m2/mol
[6]; c1 = 0.008055
  molar conductivity: 0.00776 ± 6e-06 S·m2/mol
[6]; c1 = 0.008382
  molar conductivity: 0.007739 ± 6e-06 S·m2/mol
[5]; c1 = 0.0044
  refractive index: 1.3803 ± 0.0009
[5]; c1 = 0.0178
  refractive index: 1.3811 ± 0.0009
[5]; c1 = 0.0313
  refractive index: 1.3819 ± 0.0009
[5]; c1 = 0.0449
  refractive index: 1.3826 ± 0.0009
[5]; c1 = 0.0586
  refractive index: 1.3837 ± 0.0009

## [Na+].c1ccc([B-](c2ccccc2)(c2ccccc2)c2ccccc2)cc1 [sodium tetraphenylboron] + O=[N+]([O-])c1ccccc1
[6]; c1 = 0.001579
  molar conductivity: 0.00273 ± 6e-06 S·m2/mol
[6]; c1 = 0.002187
  molar conductivity: 0.002689 ± 6e-06 S·m2/mol
[6]; c1 = 0.002707
  molar conductivity: 0.00266 ± 6e-06 S·m2/mol
[6]; c1 = 0.003159
  molar conductivity: 0.002634 ± 6e-06 S·m2/mol
[6]; c1 = 0.003902
  molar conductivity: 0.002597 ± 6e-06 S·m2/mol
[6]; c1 = 0.004489
  molar conductivity: 0.002572 ± 6e-06 S·m2/mol
[6]; c1 = 0.004964
  molar conductivity: 0.002553 ± 6e-06 S·m2/mol
[6]; c1 = 0.005966
  molar conductivity: 0.002516 ± 6e-06 S·m2/mol
[6]; c1 = 0.006419
  molar conductivity: 0.0025 ± 6e-06 S·m2/mol
[6]; c1 = 0.006844
  molar conductivity: 0.002482 ± 6e-06 S·m2/mol
[6]; c1 = 0.00722
  molar conductivity: 0.002471 ± 6e-06 S·m2/mol
[6]; c1 = 0.007448
  molar conductivity: 0.002463 ± 6e-06 S·m2/mol
[5]; c1 = 0.0042
  refractive index: 1.5498 ± 0.0008
[5]; c1 = 0.0168
  refractive index: 1.5506 ± 0.0008
[5]; c1 = 0.0295
  refractive index: 1.5511 ± 0.0008
[5]; c1 = 0.0423
  refractive index: 1.5518 ± 0.0008
[5]; c1 = 0.0552
  refractive index: 1.5526 ± 0.0008
